What is called IC50 is the concentration that inhibits the measured activity by half. The term CC50 denotes the concentration at which the toxic effect on the cells reaches its halfway point.

The text below walks through data of PMC10004088, “Myrtinols A–F: New Anti-Inflammatory Peltogynoid Flavonoid Derivatives from the Leaves of Australian Indigenous Plant Backhousia myrtifolia” (Molecules, 2023).

Holding throughout (type): cell-based
The subject of experiment [1] is TNF-α production in LPS + IFN-γ activated RAW 264.7 macrophages. Put plainly: Inhibition of TNF-α production (ELISA) in LPS + IFN-γ activated RAW 264.7 macrophages. The note with it: Mus musculus, RAW264.7, 24 hrs, N = 6, mean ± SD. As for the experimental part:
(§1) All compounds were assessed for their anti-inflammatory activity by evaluating the inhibition of NO production and TNF-α in LPS plus interferon (IFN)-γ activated RAW 264.7 macrophages. All compounds were also evaluated for their cytotoxicity using the Alamar blue assay (Table 3).
(§2) Cells were grown in 75 cm^2 flasks on Dulbecco’s Modified Eagle Medium (DMEM) containing 10% fetal bovine serum (FBS) that was supplemented with penicillin (100 U/mL), streptomycin (100 μg/mL) and L-glutamine (2 mM). The cell line was maintained in 5% CO2 at 37 °C, with media being replaced every 3–4 days. Once cells had grown to confluence in the culture flask, they were harvested using a rubber policeman, as opposed to using trypsin, which can remove membrane-bound receptors.
(§3) RAW 264.7 cells (1 × 10^6 cells/mL) were seeded in 96 well plates (Corning® Costar®, Sigma, Sydney, Australia) overnight until confluency. When the cells were confluent, each compound was serially diluted from a starting concentration of 100 μg mL^−1 to construct a dose response curve (i.e., 100, 50, 25, 12.5, 6.25, and 3.13 μg mL^−1) and co-incubated with cells for 1 hr prior to the addition of 1 μg mL^−1 LPS and 10 U mL^−1 (1 unit = 0.1 ng/mL) IFN-γ. After activation, the cells were incubated for another 24 hrs at 37 °C. The supernatant was then collected for NO, and TNF-α assays. The cells were subjected to cell viability measurement using the Alamar Blue assay. Non-activated cells (exposed to media only) were used as negative control and activated cells were positive control.
The stored supernatants were analyzed for TNF-α synthesis using a commercial ELISA kit (Peprotech, Brisbane, Australia) according to the manufacturer’s instructions. The absorbance was measured at 410 nm. The concentrations of TNF-α in the experimental samples were extrapolated from a standard curve.
(§4) Data analysis was carried using GraphPad Prism 9.3.1. Calculations were performed using MS-Excel version 16.61.1. IC50 values were obtained by using the sigmoidal dose–response function in GraphPad Prism. The results were expressed as mean ± standard deviation (SD).
A general note: An ELISA detects its analyte on a solid surface through an enzyme-linked reagent.

The subject of another experiment is RAW 264.7 macrophages. The experiment is described as follows: Cell viability / cytotoxicity by the Alamar Blue assay. The note with it: Mus musculus, RAW264.7, 24 h, LPS + IFN-γ activated RAW 264.7 macrophages, N = 6, mean ± SD. As for the experimental part: as §1, §2, §3
After various treatments and the stimulation by LPS and IFN-γ overnight, 100 µL of Alamar Blue solution [10% Alamar Blue (resazurin) in DMEM media] was added to cells and incubated at 37 °C for 2 hrs. The fluorescence intensity was measured with excitation at 530 nm and emission at 590 nm using a microplate reader. The results were expressed as a percentage of the intensity to that of control cells (non-activated cells).
as §4
Background: Alamar Blue is a resazurin reagent that responds to reducing activity.

Experiment [2] relates to nitric oxide (NO) production in LPS + IFN-γ activated RAW 264.7 macrophages. Put plainly: Inhibition of NO production (Griess assay) in LPS + IFN-γ activated RAW 264.7 macrophages. The following applies: for IC50: Mus musculus, RAW264.7, 24 hrs, N = 6, mean ± SD; for Anti-inflammatory activity (in words): verbal judgement of Table 3 data. How it is done: as §1, §2, §3
Nitric oxide was determined by the Griess reagent as described in previous studies. Griess reagent was freshly made up of equal volumes of 1% sulfanilamide in 5% phosphoric acid and 0.1% N-1-naphthylethylenediamine dihydrochloride in Milli-Q water. From each well, 50 µL of supernatant was transferred to a fresh 96-well plate and mixed with 50 µL of Griess reagent. The production of nitrite as an indicator of NO was measured at 540 nm in a POLARstar Omega microplate reader (BMG Labtech, Mornington, Australia).
as §4
For orientation: Griess reagent forms a coloured azo dye with nitrite.

Consider `COc1c(C)c(O)cc2c1C[C@@H]1OCc3c(cc4c(c3O)OCO4)[C@H]1O2` [Compound 1, Myrtinol A], for which the IC50 amounted to 24.5 ± 0.28 µg/mL in experiment [1] and 11.5 ± 0.14 µg/mL in experiment [2]. Further, the CC50 in the experiment with RAW 264.7 macrophages worked out at 18.8 ± 0.39 µg/mL.
Take `COc1cc2c(c(O)c1OC)CO[C@H]1Cc3c(cc(O)c(C)c3OC)O[C@H]21` [Compound 2, Myrtinol B]: the results for the IC50 in experiment [1] and in experiment [2] were 52.4 ± 7.47 µg/mL and 16.2 ± 0.77 µg/mL, respectively. The CC50 in the experiment with RAW 264.7 macrophages stood at 37.2 ± 2.09 µg/mL.
For `COc1cc2c(c(O)c1C)[C@@H](O)[C@@H]1OCc3c(cc(OC)c(OC)c3O)[C@H]1O2` [Compound 3, Myrtinol C], the IC50 in experiment [1] is above 100 µg/mL. In addition, in the experiment on RAW 264.7 macrophages, the CC50 is above 100 µg/mL. Further, in experiment [2], the IC50 is above 100 µg/mL and the “Anti-inflammatory activity (in words)” value was “inactive”.
As for `COc1cc2c(c(O)c1C)C[C@@H]1OCc3c(cc(OC)c(OC)c3O)[C@H]1O2` [Compound 4, Myrtinol D], the IC50 in experiment [1] is 91.3 ± 7.14 µg/mL; in experiment [2], 29.3 ± 10.9 µg/mL. The CC50 in the experiment with RAW 264.7 macrophages was found to be 71.5 ± 14.7 µg/mL.
For `COc1cc2c(c(OC)c1C)C[C@@H]1OCc3c(cc4c(c3O)OCO4)[C@H]1O2` [Compound 5, Myrtinol E], in that order: 17.2 ± 0.22 µg/mL, 8.51 ± 0.47 µg/mL and 15.5 ± 0.42 µg/mL.
As to `COc1cc2c(c(OC)c1C)C[C@@H]1OCc3c(cc(OC)c(OC)c3O)[C@H]1O2` [Compound 6, Myrtinol F], the IC50 was 30.6 ± 5.01 µg/mL in experiment [1] and 12.6 ± 0.26 µg/mL in experiment [2]. In addition, the CC50 in the experiment on RAW 264.7 macrophages was found to be 19.8 ± 0.86 µg/mL.
Regarding `COc1ccc([C@@H]2Oc3c(O)cc(CCCO)cc3[C@H]2CO)cc1OC` [Compound 7, 4-O-methylcedrusin], the concentration for half-maximal inhibition (IC50) in experiment [1] is above 100 µg/mL; in experiment [2], 44.1 ± 13.4 µg/mL. Besides, in the experiment on RAW 264.7 macrophages, the CC50 is above 100 µg/mL. Also, in experiment [2], the “Anti-inflammatory activity (in words)” value is reported as “did not show good anti-inflammatory activity”.
In the case of `COc1cc([C@@H]2Oc3c(OC)cc(CCCO)cc3[C@H]2CO)ccc1O` [Compound 8, 7-O-methylcedrusin], the IC50 in experiment [1] and in experiment [2] was above 100 µg/mL throughout. The CC50 in the experiment on RAW 264.7 macrophages was above 100 µg/mL. Moreover, in experiment [2], the “Anti-inflammatory activity (in words)” value is “did not show good anti-inflammatory activity”.
Regarding `COc1cc2oc(-c3ccc(O)cc3)cc(=O)c2c(O)c1C` [Compound 9, 8-demethylsideroxylin], the IC50 in experiment [1] came to 46.8 ± 5.87 µg/mL; in experiment [2], 8.3 ± 0.96 µg/mL. Further, the CC50 in the experiment with RAW 264.7 macrophages was determined as 20.4 µg/mL.
Turning to `COc1cc(/C=C/C(=O)CC(=O)/C=C/c2ccc(O)c(OC)c2)ccc1O` [curcumin, reference compound], the IC50 in experiment [1] came out at 4.19 ± 2.6 µg/mL; in experiment [2], 4.64 ± 1.5 µg/mL. Besides, the CC50 in the experiment on RAW 264.7 macrophages turned out to be 10.9 ± 1.3 µg/mL.
